Experiment [1] has as its target Cytochrome P450 3A4 (Homo sapiens, UniProt P08684).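 Further: CYP3A4 tested as one member of a cytochrome P450 panel screen.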
Experiment [2] deals with T1, Cytochrome P450 1A2 (Homo sapiens, UniProt P05177).
T1 sequence (P05177 whole entry): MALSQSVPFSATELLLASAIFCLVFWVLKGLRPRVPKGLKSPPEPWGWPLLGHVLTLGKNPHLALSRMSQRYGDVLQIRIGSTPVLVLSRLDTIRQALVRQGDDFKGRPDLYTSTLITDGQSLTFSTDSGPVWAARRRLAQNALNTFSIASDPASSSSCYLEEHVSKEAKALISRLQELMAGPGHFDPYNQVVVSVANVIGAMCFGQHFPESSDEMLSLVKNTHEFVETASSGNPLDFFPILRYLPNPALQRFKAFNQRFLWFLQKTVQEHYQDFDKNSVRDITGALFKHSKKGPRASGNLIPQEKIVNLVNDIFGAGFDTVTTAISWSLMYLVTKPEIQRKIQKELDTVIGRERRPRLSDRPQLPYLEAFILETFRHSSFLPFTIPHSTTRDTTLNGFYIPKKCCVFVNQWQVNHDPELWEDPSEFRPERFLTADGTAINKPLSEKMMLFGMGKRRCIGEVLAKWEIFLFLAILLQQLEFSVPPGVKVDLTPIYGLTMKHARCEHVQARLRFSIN

The subject of experiment [3] is Streptococcus sp. 'group A'. Briefly: growth inhibition of control SK(-) GAS strain, dose response, counter-screen for streptokinase expression inhibitor project, luminescence, kanamycin, BacTiterGlo, confirmation (AID 1900). Type of experiment: functional, organism-based.
Experiment [4] deals with T2, Heat shock factor protein 1 (Mus musculus, UniProt P38532).
T2 sequence (P38532 whole entry): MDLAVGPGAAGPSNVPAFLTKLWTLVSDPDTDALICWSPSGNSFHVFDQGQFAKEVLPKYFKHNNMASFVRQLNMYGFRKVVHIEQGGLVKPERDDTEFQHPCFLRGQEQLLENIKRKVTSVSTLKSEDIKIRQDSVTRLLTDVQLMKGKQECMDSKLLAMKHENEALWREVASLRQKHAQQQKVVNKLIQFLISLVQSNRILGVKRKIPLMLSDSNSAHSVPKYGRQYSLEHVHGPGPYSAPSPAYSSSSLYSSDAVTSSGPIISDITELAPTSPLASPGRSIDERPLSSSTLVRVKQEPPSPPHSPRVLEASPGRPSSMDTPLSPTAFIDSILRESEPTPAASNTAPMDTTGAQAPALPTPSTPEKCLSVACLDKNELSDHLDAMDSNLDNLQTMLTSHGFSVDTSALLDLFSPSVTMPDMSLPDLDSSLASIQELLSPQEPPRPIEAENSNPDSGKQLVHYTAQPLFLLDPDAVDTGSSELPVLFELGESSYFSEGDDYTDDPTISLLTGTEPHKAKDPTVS
Description: HSF1 potentiators in luciferase reporter cells, confirmation, cell-based, NIH3T3, luminescence, dose retest (AID 435004).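 Further: stress induced by proteasome inhibitor MG132 added 30 min after compound; luciferase reporter driven by HSF1 response element in NIH3T3 cells; actives raise luminescence as potentiators of the MG132 stress response.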 Type of experiment: functional.

The nature of experiment [5]: inhibitors of intracellular T. cruzi replication, confirmation, NIH3T3 host cells, beta-gal luminescence (AID 2044).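 Further: intracellular parasites grown in NIH/3T3 mouse fibroblasts as host cells; luminescent beta-galactosidase reporter signal from transgenic T. cruzi replicating inside host cells; inhibitors lower the luminescence signal.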 It counts as functional, cell-based.
Experiment [6] in a line: cytotoxicity toward NIH3T3 fibroblasts, dose response, counter-screen, cell-based, ATP luminescence, mouse fibroblasts (AID 2010).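 Further: cells exposed to compound for about 90 hours before reading.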 Type of experiment: functional. In general terms: The purpose of a counterscreen is to sort out artefacts and off-target activity.
Experiment [7] concerns Streptococcus. Description: Group A Streptococcus viability loss, dose response, counter-screen for streptokinase expression inhibitor project, luminescence, BacTiterGlo (AID 1915).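 Further: potency for reduction of bacterial viability or growth.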 Type of experiment: functional, organism-based.

SMILES strings stand for the structures. “And” between values parts separate entries of the source, which are not always exact repeats. Equal values may be shown once. The source made the active and inactive calls. For most assays here, no stated cut-off is given here; in the data, actives have a measured EC50 and inactives only a lower limit.

Sequence of Cytochrome P450 3A4 (P08684 whole entry): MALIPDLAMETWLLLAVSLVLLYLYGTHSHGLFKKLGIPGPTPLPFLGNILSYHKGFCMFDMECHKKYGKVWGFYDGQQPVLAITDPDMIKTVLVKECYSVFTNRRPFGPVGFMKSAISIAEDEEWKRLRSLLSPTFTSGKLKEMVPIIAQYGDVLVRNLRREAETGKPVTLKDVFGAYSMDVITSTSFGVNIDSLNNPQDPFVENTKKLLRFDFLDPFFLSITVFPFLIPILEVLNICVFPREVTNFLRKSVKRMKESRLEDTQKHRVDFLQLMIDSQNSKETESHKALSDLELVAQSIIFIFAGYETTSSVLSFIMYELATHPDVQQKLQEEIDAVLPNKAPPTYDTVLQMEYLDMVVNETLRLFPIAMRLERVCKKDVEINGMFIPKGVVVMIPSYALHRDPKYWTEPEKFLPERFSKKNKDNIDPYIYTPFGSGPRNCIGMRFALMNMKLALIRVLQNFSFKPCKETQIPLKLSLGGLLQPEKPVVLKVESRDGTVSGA

In the case of `NCCNC(=O)c1ncsc1-c1cccc(F)c1`, the AC50 (commonly the midpoint of the concentration-response curve, whichever way the signal moves) in experiment [1] was 31.6 µM (inconclusive). `COc1ccc([N+](=O)[O-])cc1N=C(S)NC(NC(=O)Cc1ccc(OC)c(OC)c1)C(Cl)(Cl)Cl` (stereo unspecified): the AC50 in experiment [2] was 17.8 µM (inconclusive). As for `CC1(C)CC[C@]2(C(=O)O)CC[C@]3(C)C(=CCC4[C@@]5(C)CC[C@H](O)C(C)(C)C5CC[C@]43C)C2C1` (stereo partly specified), the EC50 (usually the concentration needed to bring the measured effect to its halfway point) in experiment [3] was 2.6 µM (active). Consider `C[C@](N)(CCP(=O)(O)O)C(=O)O`, for which, in experiment [2], the AC50 is 39.8 µM (inconclusive).

As to `COc1cccc(NC(=O)CSc2nc(N)cc(N)n2)c1`, the EC50 in experiment [4] was > 260 µM (inactive).

With `O=C(CSc1nccn(-c2ccc(F)c(F)c2)c1=O)NC1CCCC1`, the EC50 in experiment [4] is > 260 µM (inactive).

For `C(=N\N1CCN(Cc2cccc3ccccc23)CC1)/c1cccnc1`, the EC50 in experiment [4] was > 260 µM (inactive). Same read-out and setting: under `COc1ccc(C(=O)n2nc(C)cc2Nc2ccccc2)cc1` stands 7.2 µM (active). Take `CCCOc1ccc(NC(=O)OC2CCN(C)CC2)cc1`: the concentration giving a half-maximal response (EC50) is 0.442 µM (active) in experiment [5] and > 60 µM (not active) in experiment [6]. With `N#Cc1ccc(CN2CC3(CCN(C(=O)c4ccncc4)CC3)C2)cc1`, the AC50 in experiment [1] is 12.6 µM (inconclusive).

Regarding `CCOc1cc(CNc2cccc3ccccc23)cc(Br)c1OCC(=O)NC(C)(C)C`, the figures for the EC50 in experiment [5] and in experiment [6] were 2.31 µM (active) and > 30 µM (not active), respectively. Regarding `COc1cc2c(cc1OC)C(C(=O)N1CCOCC1)C(c1cccs1)N(C)C2=O` (stereo unspecified), in experiment [1], the half-maximal activity concentration (AC50) was 25.1 µM (inconclusive). Regarding `CCOC(=O)NC(NC(=O)OCC)C(=O)c1ccc(F)cc1`, the AC50 in experiment [2] was 10 µM (inconclusive). As to `CN(C)S(=O)(=O)c1ccc(C(=O)Nc2nnc(-c3ccc4c(c3)CCCC4)o2)cc1`, the EC50 in experiment [3] is 0.286 µM (active); in experiment [7], 0.264 µM (active). As to `COc1ccccc1N1CCN(C(CNS(=O)(=O)c2cc(F)ccc2F)c2cccnc2)CC1` (stereo unspecified), the EC50 in experiment [5] was 0.367 µM (active); in experiment [6], > 60 µM (not active). Regarding `CN(C)CCCCNCCCNC(=O)/C=N\O`, the EC50 in experiment [4] is > 260 µM (inactive). As to `Cc1cc(NC(=O)c2cccs2)n(-c2nc3ccccc3[nH]2)n1`, the EC50 in experiment [5] is 1.95 µM (active); in experiment [6], 14.2 µM (active). The matching figures for `CCN1CCN(c2oc(COc3ccc(-c4ccccc4)cc3)nc2C#N)CC1`: 2.66 µM (active) and > 60 µM (not active). Take `CC(=O)Nc1sc2c(c1CN1CCN(C)CC1)CCCC2`: the AC50 in experiment [2] is 17.8 µM (inconclusive). Regarding `COc1ccc(CCN=C(NS(=O)(=O)c2ccccc2)c2ccccc2)cc1OC`, the EC50 in experiment [4] is > 260 µM (inactive). In the case of `CCOc1ccc(NC(=O)c2ccc(OC)cc2)cc1`, the AC50 in experiment [2] is 20 µM (inconclusive). Regarding `O=[N+]([O-])c1ccc(S(=O)(=O)NCCS(=O)(=O)N2CCN(c3ccccc3)CC2)cc1`, the concentration giving a half-maximal response (EC50) in experiment [5] is 0.247 µM (active); in experiment [6], > 60 µM (not active).

`Cc1c(N(C)S(=O)(=O)c2cccc(C(=O)NC(C)C)c2)c(=O)n(-c2ccccc2)n1C`: the EC50 in experiment [4] is > 260 µM (inactive). In the case of `Cc1c(C(=O)NCc2ccc3c(c2)OCO3)oc2ccc(S(=O)(=O)N3CCC(C)CC3)cc12`, the EC50 in experiment [5] is 1.04 µM (active); in experiment [6] it was 50.9 µM (active). As to `CCS(=O)(=O)C(=C1NCCO1)S(=O)(=O)CC`, the EC50 in experiment [4] was > 260 µM (inactive). On the same count and under the same terms, as for `CC(=O)Nc1cccc(-n2nnc(SCC(=O)Nc3ccc(F)c(Cl)c3)n2)c1`, the figure is > 260 µM (inactive). On the same count and under the same terms, under `CCN(CC)C(=O)c1ccc(C)c(Br)c1` stands > 260 µM (inactive). Turning to `Cc1cc(Cn2ccnc2)c(C)c([N+](=O)[O-])c1Cn1ccnc1`, the half-maximal effective concentration (EC50) in experiment [5] was 2.05 µM (active); in experiment [6] it was > 60 µM (not active).

`CN1CCN(c2ccc(NC(=O)c3ccc4c(c3)nc(O)n4Cc3ccc(F)cc3)cc2)CC1`: the figures for the EC50 in experiment [5] and in experiment [6] were 0.955 µM (active) and > 30 µM (not active), respectively.

`Cc1csc(-c2cnn(-c3ccccc3)c2NC(=O)c2cccc(C(F)(F)F)c2)n1`: in experiment [4], the EC50 is > 260 µM (inactive). Same read-out and setting: as for `CCC(Sc1nc2cc3c(cc2c(=O)n1Cc1ccco1)OCO3)C(=O)NCCOC` (stereo unspecified), the figure is > 260 µM (inactive). For the compound `COc1ccc(C(F)(F)F)cc1N/C=C\c1nnnn1-c1ccccc1`, the AC50 in experiment [2] is 1.41 µM (inconclusive); in experiment [1] it was 31.6 µM (inconclusive).

In the case of `Cc1nn(CC(=O)NCc2ccccc2)c(C)c1[N+](=O)[O-]`, the AC50 in experiment [1] is 22.4 µM (inconclusive). For `O=C(Nc1ccccc1)/C(=C\c1ccncc1)NC(=O)c1ccccc1`, the AC50 was 15.8 µM (inconclusive) in experiment [2] and 0.794 µM (inconclusive) in experiment [1]. Consider `Cc1cnn(-c2cc(N/N=C/c3cccc(F)c3)ncn2)c1`, for which the EC50 in experiment [4] is > 260 µM (inactive). For the compound `CO[C@@H]1CC=C2CCN3CCC4=C(CC(=O)OC4)[C@]23C1`, the AC50 in experiment [1] was 39.8 µM (inconclusive). Take `COC(=O)CN1C(c2cccc(Cl)c2)=Nc2ccc(Cl)cc2C1c1ccccc1` (stereo unspecified): in experiment [4], the EC50 is > 260 µM (inactive). `C=CCn1c(=O)c2c(nc(Br)n2Cc2ccccc2Cl)n(C)c1=O`: in experiment [2], the AC50 is 15.8 µM (inconclusive). On to `c1ccc(C(c2ccccc2)c2noc(CN3CCC(c4ccncc4)CC3)n2)cc1`, for which the EC50 in experiment [5] is 0.943 µM (active); in experiment [6] it was > 30 µM (not active). Turning to `CC(C)(C)c1cc(NC(=O)CCSc2nnc3ccccn23)cc(C(C)(C)C)c1`, the EC50 in experiment [4] is > 260 µM (inactive). On to `COc1ccc(NC(=O)N2CCC3(CC2)CCN(C(=O)c2ccncc2)CC3)cc1`, for which the AC50 is 25.1 µM (inconclusive) in experiment [2] and 15.8 µM (inconclusive) in experiment [1]. On to `COc1ccc(C(=O)N2CCC3(CC2)CCN(c2cccc(-c4ccccc4)c2)CC3)cc1`, for which the AC50 in experiment [2] is 25.1 µM (inconclusive). With `COc1ccc(S(=O)(=O)N2CCOC23CCN(S(=O)(=O)c2ccc([N+](=O)[O-])cc2)CC3)cc1`, the results for the EC50 in experiment [5] and in experiment [6] were 2.03 µM (active) and > 30 µM (not active), respectively.

For `Cc1ccc2cc(C(c3nnnn3C3CCCC3)N(Cc3ccco3)Cc3cccs3)c(O)nc2c1` (stereo unspecified), the EC50 in experiment [5] is 3.2 µM (active); in experiment [6], > 60 µM (not active). Consider `CN(C)c1ncc2nc(-c3ccc(F)cc3)c(=O)n(CCc3ccccc3)c2n1`, for which the AC50 in experiment [2] is 2.51 µM (inconclusive). For the compound `C/C(=N\Nc1nc(N2CCCCC2)nc(N2CCOCC2)n1)c1ccccc1O`, the concentration giving a half-maximal response (EC50) in experiment [5] was 0.681 µM (active); in experiment [6] it was 6.37 µM (active). Turning to `CC(c1nnnn1C(C)(C)C)N(Cc1cccnc1)Cc1ccccc1Cl` (stereo unspecified), the EC50 in experiment [5] was 0.496 µM (active); in experiment [6] it was > 60 µM (not active). The matching figures for `CCCOc1ccc(N2C(=O)CC(N(CCc3ccc(OC)c(OC)c3)C(S)=Nc3ccccc3)C2=O)cc1` (stereo unspecified): 2.1 µM (active) and > 30 µM (not active). For `O=C(Nc1nnc(SCc2ccc(Cl)cc2)s1)c1ccco1`, the AC50 in experiment [2] was 3.16 µM (inconclusive); in experiment [1] it was 31.6 µM (inconclusive).

With `CCOc1cc(/C=N/O)cc(Cl)c1OC`, the AC50 in experiment [1] was 31.6 µM (inconclusive). With `COc1ccc2c(c1)c(CC(=O)O)c(C)n2C(=O)c1ccc(Cl)cc1` [INDOMETHACIN], in experiment [2], the AC50 was 10 µM (inconclusive) and 39.8 µM (inconclusive).
